# Laboratory results as given in ChEMBL document CHEMBL1201862, “PubChem BioAssay data set” (2004).
#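 Method: 48-hour compound exposure of cells in 96-well plates, five concentrations, linear interpolation of endpoints. GI50 = concentration required for 50% inhibition of growth.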 The source made the active and inactive calls. No stated cut-off is given here; in the data, active = GI50 up to about 1.1 µM and inactive = higher.
# Legend:
# Assay in all cases: NCI-60 cell line screen, 48 h
# CAKI-1 = system: CAKI-1
# OVCAR-4 = system: OVCAR-4
# NCI-H522 = system: NCI-H522
# HL-60 = system: HL-60
# NCI/ADR-RES = system: NCI/ADR-RES
# OVCAR-8 = system: OVCAR-8
# SF-539 = system: SF-539
# LOX IMVI = system: LOX IMVI
# UACC-62 = system: UACC-62
# SF-268 = system: SF-268
# DU-145 = system: DU-145
# A498 = system: A498
# MDA-N = system: MDA-N
# CCRF-CEM = system: CCRF-CEM
# SNB-75 = system: SNB-75
# HCC 2998 = system: HCC 2998
# Hs-578T = system: Hs-578T
# HOP-92 = system: HOP-92
# RPMI-8226 = system: RPMI-8226
# SK-OV-3 = system: SK-OV-3
Compound,GI50 (CAKI-1),GI50 (OVCAR-4),GI50 (NCI-H522),GI50 (HL-60),GI50 (NCI/ADR-RES),GI50 (OVCAR-8),GI50 (SF-539),GI50 (LOX IMVI),GI50 (UACC-62),GI50 (SF-268),GI50 (DU-145),GI50 (A498),GI50 (MDA-N),GI50 (CCRF-CEM),GI50 (SNB-75),GI50 (HCC 2998),GI50 (Hs-578T),GI50 (HOP-92),GI50 (RPMI-8226),GI50 (SK-OV-3)
CC1=CCC[C@@H]2[C@@](C)(Cc3cc(O)ccc3O)[C@H](C)CC[C@@]12C,11.3 µM (inactive),12.1 µM (inactive),4.83 µM (inactive),1.81 µM (inactive),5.24 µM (inactive),5.45 µM (inactive),6.18 µM (inactive),4.99 µM (inactive),10.5 µM (inactive),7.43 µM (inactive),10.3 µM (inactive),15.3 µM (inactive),5.53 µM (inactive),2.1 µM (inactive),5.47 µM (inactive),7.66 µM (inactive),5.92 µM (inactive),4.84 µM (inactive),3.44 µM (inactive),12.6 µM (inactive)
CC(CN1NC12CCCC2)N1NC12CCCC2 (stereo not given),> 100 µM (inactive),> 100 µM (inactive),> 100 µM (inactive),> 100 µM (inactive),> 100 µM (inactive),> 100 µM (inactive),> 100 µM (inactive),> 100 µM (inactive),> 100 µM (inactive),> 100 µM (inactive),> 100 µM (inactive),> 100 µM (inactive),> 100 µM (inactive),> 100 µM (inactive),> 100 µM (inactive),> 100 µM (inactive),> 100 µM (inactive),> 100 µM (inactive),> 100 µM (inactive),> 100 µM (inactive)
C=C1C(=O)C23CC1C[C@H](OC(C)=O)[C@H]2C1(C)C(OC(C)=O)C[C@H](O)C(C)(C)[C@H]1C(=O)[C@@H]3OC(C)=O (stereo not given in full),2.86 µM (inactive),4.09 µM (inactive),1.57 µM (inactive),2.18 µM (inactive),16.7 µM (inactive),2.95 µM (inactive),2.69 µM (inactive),3.4 µM (inactive),4.86 µM (inactive),9.08 µM (inactive),12.9 µM (inactive),16.2 µM (inactive),1.69 µM (inactive),1.41 µM (inactive),18.4 µM (inactive),19.2 µM (inactive),3.98 µM (inactive),0.248 µM (active),1.33 µM (inactive),18.1 µM (inactive)
CC(=O)n1nc(-c2ccccc2)n(/N=C/c2ccc([N+](=O)[O-])o2)c1=O,9.46 µM (inactive),15.1 µM (inactive),3.7 µM (inactive),3.59 µM (inactive),9.73 µM (inactive),9.93 µM (inactive),8.79 µM (inactive),7.74 µM (inactive),10.4 µM (inactive),3.08 µM (inactive),7.91 µM (inactive),2.47 µM (inactive),1.81 µM (inactive),1.6 µM (inactive),10.2 µM (inactive),4.53 µM (inactive),8.59 µM (inactive),9.86 µM (inactive),10 µM (inactive),16.6 µM (inactive)
